# Reference: patent publication US20250388571A1, “AMP-ACTIVATED PROTEIN KINASE MODULATOR COMPOUNDS AND USES THEREOF” (Biolexis Therapeutics, Inc., priority 2024, published 2025)
# “Also recorded” adds a separate entry of the source.
# How the values were obtained:
# [1] = system: human skeletal muscle cells (HSKM cells); assay: Glucose uptake assay, human skeletal muscle cells; assay type: cell-based; conditions: for dose dependence of glucose uptake (printed: activation of insulin / AMPK activation): 100 μM to 0.005 μM, 1 hour; for glucose uptake: starved, treated 1 hour
# Description: FIGS. 1-4 show results for cells treated with differing doses of representative compounds of Structure (I) (i.e., compound I-11 in FIG. 1 and compound I-7 in FIG. 2) as well reference compounds (i.e., PF-06409577 in FIG. 3 and MK-8722 in FIG. 4). […] Cells were starved for 3 hours in high glucose DMEM without FBS, then treated with indicated compounds in DMEM without FBS/glucose for 1 hour, and glucose uptake was detected using an uptake glucose kit (Promega). The bars show (from left to right) concentrations of 100 μM, 33 μM, 11 μM, 3.7 μM, 1.23 μM, 0.41 μM, 0.14 μM, 0.045 μM, 0.015 μM, 0.005 μM, 0 μM, and insulin.
# (§1) Human skeletal myoblasts were obtained (Thermofisher; BYU) and cultured in DMEM/F12 medium with 10% FBS. For differentiation, 2% horse serum low glucose DMEM medium was employed for 72 hours. Human cardiomyocytes cells (HCM cells; Promocell) were cultured in myocyte growth medium (Promocell). Human preadipocyte HWP-c cells (Promocell) were obtained from upper arm of diabetic II donor. Human preadipocyte HWP-c cells (Promocell) were obtained from abdomen of diabetic II donor. For differentiating human preadipocytes, cells were cultured in preadipocyte growth medium to total confluency stage. The growth medium was replaced with preadipocyte differentiation medium for 72 hours, then changed to PromoCell adipocyte nutrition medium to complete the differentiation process. THLE-2 cells were cultured in BEGM from Lonza/Clonetics Corporation, Walkersville, MD 21793 (BEGM Bullet Kit; CC3170). HepG2, L6 and C2Cl2 cells were cultured in EMEM medium.
# (§2) After differentiation myoblasts, preadipocyte cells were starved by removing the medium and adding 100 μL DMEM without serum. The medium was then replaced with 100 μL DMEM±1 μM insulin at indicated concentration of representative compounds without serum or glucose. The cells were then incubated for 1 hour at 37° C. in 5% CO2. The cells were then removed from the medium and 50 μL of 0.1 mM 2DG in PBS was added. Cells were incubated for 30 minutes at 25° C. 25 μL of Stop Buffer was added and samples were mixed. 25 μL of Neutralization Buffer was then added and mixed. 100 μL of 2DG6P Detection Reagent was then added and mixed. Samples were then incubated for 1 hour at 25° C. Luminescence was then recorded with 0.3-1 second integration on a luminometer.
# [2] = system: AMPK signal pathway in human cardiac myocytes (HCM); assay: Western blot assay, human cardiomyocytes; assay type: cell-based
# [3] = system: human cardiomyocyte cells (HCM); assay: Glucose uptake assay, human cardiomyocyte cells; assay type: cell-based; conditions: for glucose uptake: donor not stated; for AMPK activation activity (glucose uptake assay): 10 doses 100 μM to 0.005 μM
# Description: FIGS. 17-19 show results for glucose update assays in human cardiomyocyte cells (“HCM”-healthy donor) (Promocell, cat. no. C-12810) when treated with compound I-11 (FIG. 17), compound I-7 (FIG. 18), and PF-06409577 (FIG. 19). After recovered HCM cells for 4 days, cells were starved for 3 hours in high glucose DMEM without FBS, treated with the components noted above in DMEM without FBS/glucose for 1 hour, and glucose uptake was detected using a glucose uptake kit (Promega). […] The bars show (from left to right) concentrations of 100 μM, 33 μM, 11 μM, 3.7 μM, 1.23 μM, 0.41 μM, 0.14 μM, 0.045 μM, 0.015 μM, 0.005 μM, 0 μM, and insulin.
# FIGS. 20-22 show results for glucose update assays in human cardiomyocyte cells (“HCM”-diabetic donor) (Promocell, cat. no. C-12810) when treated with compound I-11 (FIG. 20), compound I-7 (FIG. 21), and PF-06409577 (FIG. 22). After recovered HCM cells for 4 days, cells were starved for 3 hours in high glucose DMEM without FBS, treated with the components noted above in DMEM without FBS/glucose for 1 hour, and glucose uptake was detected using a glucose uptake kit (Promega). […] The bars show (from left to right) concentrations of 100 μM, 33 μM, 11 μM, 3.7 μM, 1.23 μM, 0.41 μM, 0.14 μM, 0.045 μM, 0.015 μM, 0.005 μM, 0 μM, and insulin.
# as §1, §2
# [4] = target: AMPK (A2/B1/G2) (Homo sapiens, UniProt P54646+Q9UGJ0+Q9Y478); assay: AMPK kinase binding activity in activation mode (AC50); assay type: biochemical
# Source text: In Vitro AMPK Kinase Inhibition Experiments
# [5] = target: AMPK (A2/B1/G3) (Homo sapiens, UniProt P54646+Q9UGI9+Q9Y478); assay: as above; assay type: biochemical
# [6] = system: Human white preadipocyte (HWP) cells; assay: Glucose uptake assay, human white preadipocyte cells; assay type: cell-based; conditions: for glucose uptake: human adipocyte cells / HWP-c cells, donor site not stated
# Description: (§3) FIGS. 5-8 show results for glucose update assays in Human white preadipocyte (HWP) cells (Promocell, cat. No. C-12735) when treated with compound I-11 (FIG. 5), compound I-7 (FIG. 6), MK-8722 (FIG. 7), and PF-06409577 (FIG. 8). HWP cells (subcutaneous upper arm of obese patient) were starved for 3 hours in DMEM without FBS, treated with the components noted above in […] DMEM without FBS/glucose for 1 hour, and glucose uptake was detected using a glucose uptake kit (Promega). […] The bars show (from left to right) concentrations of 100 μM, 33 μM, 11 μM, 3.7 μM, 1.23 μM, 0.41 μM, 0.14 μM, 0.045 μM, 0.015 μM, 0.005 μM, 0 μM, and insulin.
# as §3, with “9-12” for “5-8”, “9),” for “5),”, “10),” for “6),”, “11),” for “7),”, “12).” for “8).”, “(abdomen cells)” for “(subcutaneous upper arm of obese patient)”
# as §1, §2
# [7] = system: AMPK signal pathway in HSKM cells; assay: Western blot assay, HSKM cells; assay type: cell-based, human; conditions: some high dosage groups; cell type not given
# [8] = system: human hepatocytes-THLE-2 cells; assay: Glucose uptake assay, THLE-2 cells; assay type: cell-based
# Description: FIGS. 13-16 show results for glucose update assays in THLE-2 cells (ATCC, cat. No. CRL-2706) when treated with compound I-11 (FIG. 13), compound I-7 (FIG. 14), MK-8722 (FIG. 15), and PF-06409577 (FIG. 16). The THLE-2 cells were starved for 3 hours in high glucose DMEM without FBS, treated with the components noted above in DMEM without FBS/glucose for 1 hour, and glucose uptake was detected using a glucose uptake kit (Promega). The bars show (from left to right) concentrations of 100 μM, 33 μM, 11 μM, 3.7 μM, 1.23 μM, 0.41 μM, 0.14 μM, 0.045 μM, 0.015 μM, 0.005 μM, 0 μM, and insulin.
# as §1, §2
# [9] = target: AMPK (A2/B1/G1) (Homo sapiens, UniProt P54619+P54646+Q9Y478); assay: AMPK kinase binding activity in activation mode (AC50); assay type: biochemical
# Sequence of AMPK (A2/B1/G1) (P54646 whole entry): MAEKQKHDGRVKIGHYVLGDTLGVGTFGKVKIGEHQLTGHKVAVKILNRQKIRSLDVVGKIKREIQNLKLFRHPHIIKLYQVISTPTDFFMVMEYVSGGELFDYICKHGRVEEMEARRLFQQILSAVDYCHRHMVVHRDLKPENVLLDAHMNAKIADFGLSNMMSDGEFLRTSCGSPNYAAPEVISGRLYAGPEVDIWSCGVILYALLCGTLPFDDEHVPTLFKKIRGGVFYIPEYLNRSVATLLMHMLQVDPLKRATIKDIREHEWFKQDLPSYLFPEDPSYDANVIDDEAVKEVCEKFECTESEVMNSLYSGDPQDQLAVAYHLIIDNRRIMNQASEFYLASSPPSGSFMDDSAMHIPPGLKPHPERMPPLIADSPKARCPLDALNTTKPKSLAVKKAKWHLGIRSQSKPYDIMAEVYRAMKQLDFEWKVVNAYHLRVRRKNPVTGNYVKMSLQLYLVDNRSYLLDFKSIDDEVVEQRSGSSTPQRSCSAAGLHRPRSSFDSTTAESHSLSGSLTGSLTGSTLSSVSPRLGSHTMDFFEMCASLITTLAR
# Sequence of AMPK (A2/B1/G1) (Q9Y478 whole entry): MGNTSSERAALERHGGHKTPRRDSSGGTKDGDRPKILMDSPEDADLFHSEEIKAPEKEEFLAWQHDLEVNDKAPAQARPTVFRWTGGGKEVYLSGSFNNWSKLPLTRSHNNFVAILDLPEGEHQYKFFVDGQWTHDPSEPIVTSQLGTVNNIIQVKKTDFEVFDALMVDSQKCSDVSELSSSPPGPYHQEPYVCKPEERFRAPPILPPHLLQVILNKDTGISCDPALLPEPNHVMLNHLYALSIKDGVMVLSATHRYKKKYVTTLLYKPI
# Sequence of AMPK (A2/B1/G1) (P54619 whole entry): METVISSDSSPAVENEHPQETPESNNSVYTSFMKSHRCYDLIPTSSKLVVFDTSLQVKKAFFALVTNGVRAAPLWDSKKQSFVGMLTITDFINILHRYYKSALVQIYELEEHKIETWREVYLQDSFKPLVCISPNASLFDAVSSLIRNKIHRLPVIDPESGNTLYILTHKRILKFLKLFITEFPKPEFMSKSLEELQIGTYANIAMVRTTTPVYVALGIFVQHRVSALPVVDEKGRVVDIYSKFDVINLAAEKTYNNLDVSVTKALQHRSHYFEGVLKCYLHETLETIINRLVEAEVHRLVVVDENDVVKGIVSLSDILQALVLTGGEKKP
# Sequence of AMPK (A2/B1/G3) (P54646 whole entry): as the sequence (P54646 whole entry) above
# Sequence of AMPK (A2/B1/G3) (Q9Y478 whole entry): as the sequence (Q9Y478 whole entry) above
# Sequence of AMPK (A2/B1/G3) (Q9UGI9 whole entry): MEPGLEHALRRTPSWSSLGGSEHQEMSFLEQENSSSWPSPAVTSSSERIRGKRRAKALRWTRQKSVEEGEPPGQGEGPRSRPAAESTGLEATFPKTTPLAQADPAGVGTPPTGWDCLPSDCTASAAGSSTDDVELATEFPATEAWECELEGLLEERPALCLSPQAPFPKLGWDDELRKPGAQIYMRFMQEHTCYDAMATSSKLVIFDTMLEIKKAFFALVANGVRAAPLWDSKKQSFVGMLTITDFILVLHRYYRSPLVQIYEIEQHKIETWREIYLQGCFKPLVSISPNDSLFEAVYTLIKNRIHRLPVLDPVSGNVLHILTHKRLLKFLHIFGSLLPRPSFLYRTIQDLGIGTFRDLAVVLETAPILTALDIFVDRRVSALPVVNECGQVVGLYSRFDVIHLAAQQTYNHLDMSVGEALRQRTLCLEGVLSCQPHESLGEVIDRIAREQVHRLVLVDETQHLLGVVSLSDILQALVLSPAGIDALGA
# Sequence of AMPK (A2/B1/G2) (P54646 whole entry): as the sequence (P54646 whole entry) above
# Sequence of AMPK (A2/B1/G2) (Q9Y478 whole entry): as the sequence (Q9Y478 whole entry) above
# Sequence of AMPK (A2/B1/G2) (Q9UGJ0 whole entry): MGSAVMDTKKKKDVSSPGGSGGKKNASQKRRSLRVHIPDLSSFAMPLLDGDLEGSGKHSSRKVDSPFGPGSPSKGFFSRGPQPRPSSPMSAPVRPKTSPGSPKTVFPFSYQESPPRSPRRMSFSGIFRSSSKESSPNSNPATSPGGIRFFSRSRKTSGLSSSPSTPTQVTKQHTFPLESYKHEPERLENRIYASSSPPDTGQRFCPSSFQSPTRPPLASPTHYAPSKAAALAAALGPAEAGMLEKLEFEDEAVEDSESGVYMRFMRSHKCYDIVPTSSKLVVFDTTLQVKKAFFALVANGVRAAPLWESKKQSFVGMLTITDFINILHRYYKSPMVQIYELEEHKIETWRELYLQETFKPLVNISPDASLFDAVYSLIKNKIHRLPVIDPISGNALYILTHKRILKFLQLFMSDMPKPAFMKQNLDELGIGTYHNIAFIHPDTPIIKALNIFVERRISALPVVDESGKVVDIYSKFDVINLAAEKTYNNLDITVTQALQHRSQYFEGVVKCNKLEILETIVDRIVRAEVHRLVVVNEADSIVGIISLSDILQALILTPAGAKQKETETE
SMILES,AC50 [4],AC50 [5],AC50 [9],dose dependence of glucose uptake (printed: activation of insulin / AMPK activation) [1],p-ACC/p-AMPK and AMPKα2β2γ3 expression [2],glucose uptake [3],glucose uptake [6],"p-AMPK, p-ACC, and p-Raptor expression [7]",glucose uptake [1],glucose uptake [8],"dose dependence of glucose uptake (printed: activates insulin) ([6]; HWP cells, abdomen cells, 100 μM to 0.005 μM, 1 hour)",AMPK activation activity (glucose uptake assay) ([3]; diabetic donor),AMPK activation activity (glucose uptake assay) ([3]; healthy donor)
"O[C@@H]1CO[C@H]2[C@@H]1OC[C@H]2Oc1nc2nc(-c3ccc(-c4ccccc4)cc3)c(Cl)cc2[nH]1 [MK-8722, reference compound]",,,,highly variable,may be able to increase,could increase glucose uptake,,,,,,,
"COc1ncccc1-c1cc2c(-c3noc(=O)[nH]3)c[nH]c2cc1F [Compound I-15, 3-(6-fluoro-5-(2-methoxypyridin-3-yl)-1H-indol-3-yl)-1,2,4-oxadiazol-5(4H)-one]",≤ 0.01 µM,0.01 to 0.5 µM,0.01 to 0.5 µM,,,,,,,,,,
"O=c1[nH]c(-c2c[nH]c3cc(F)c(-c4ccc(C5(O)CCC5)cc4)cc23)no1 [Compound I-7, 3-(6-fluoro-5-(4-(1-hydroxycyclobutyl)phenyl)-1H-indol-3-yl)-1,2,4-oxadiazol-5(4H)-one]",,,,dose dependence,,did not induce glucose uptake in dose-dependent manner,induced glucose uptake,could induce,induced glucose uptake; also recorded: increased glucose uptake,induced glucose uptake,dose dependent manner,did not show AMPK activation activity,did not show AMPK activation activity
"COc1ccc(-c2cc3c(-c4noc(=O)[nH]4)c[nH]c3cc2F)cn1 [Compound I-16, 3-(6-fluoro-5-(6-methoxypyridin-3-yl)-1H-indol-3-yl)-1,2,4-oxadiazol-5(4H)-one]",0.5 to 5 µM,0.5 to 5 µM,5 to 7.5 µM,,,,,,,,,,

# Second part, led by results:
AC50 [4],AC50 [5],AC50 [9],SMILES,dose dependence of glucose uptake (printed: activation of insulin / AMPK activation) [1],p-ACC/p-AMPK and AMPKα2β2γ3 expression [2],glucose uptake [3],glucose uptake [6],"p-AMPK, p-ACC, and p-Raptor expression [7]",glucose uptake [1],glucose uptake [8],"dose dependence of glucose uptake (printed: activates insulin) ([6]; HWP cells, abdomen cells, 100 μM to 0.005 μM, 1 hour)",AMPK activation activity (glucose uptake assay) ([3]; diabetic donor),AMPK activation activity (glucose uptake assay) ([3]; healthy donor)
0.01 to 0.5 µM,0.01 to 0.5 µM,,"O=c1[nH]c(-c2c[nH]c3cc(F)c(-c4ccc(C5(O)COC5)cc4)cc23)no1 [Compound I-12, 3-(6-fluoro-5-(4-(3-hydroxyoxetan-3-yl)phenyl)-1H-indol-3-yl)-1,2,4-oxadiazol-5(4H)-one]",,,,,,,,,,
≤ 0.01 µM,≤ 0.01 µM,0.01 to 0.5 µM,"O=c1[nH]c(-c2c[nH]c3cc(Cl)c(-c4ccc(C5(O)CCC5)cc4)cc23)no1 [Compound I-1, 3-(6-chloro-5-(4-(1-hydroxycyclobutyl)phenyl)-1H-indol-3-yl)-1,2,4-oxadiazol-5(4H)-one]",,,did not induce glucose uptake in dose-dependent manner,induced glucose uptake,could induce,induced glucose uptake; also recorded: increased glucose uptake,induced glucose uptake,,,
≤ 0.01 µM,≤ 0.01 µM,0.01 to 0.5 µM,"O=c1[nH]c(-c2c[nH]c3cc(F)c(-c4ccc(C5(O)COC5)cc4)c(F)c23)no1 [Compound I-13, 3-(4,6-difluoro-5-(4-(3-hydroxyoxetan-3-yl)phenyl)-1H-indol-3-yl)-1,2,4-oxadiazol-5(4H)-one]",,,,,,increased glucose uptake,,,,
0.5 to 5 µM,0.5 to 5 µM,0.5 to 5 µM,"COc1ccc(-c2c(F)cc3[nH]cc(-c4noc(=O)[nH]4)c3c2F)c(OC)n1 [Compound I-17, 3-(5-(2,6-dimethoxypyridin-3-yl)-4,6-difluoro-1H-indol-3-yl)-1,2,4-oxadiazol-5(4H)-one]",,,,,,,,,,
0.01 to 0.5 µM,0.01 to 0.5 µM,0.01 to 0.5 µM,"O=c1[nH]c(-c2c[nH]c3ccc(-c4ccc(C5(O)CCC5)cc4)cc23)no1 [Compound I-10, 3-(5-(4-(1-hydroxycyclobutyl)phenyl)-1H-indol-3-yl)-1,2,4-oxadiazol-5(4H)-one]",,,did not induce glucose uptake in dose-dependent manner,induced glucose uptake,could induce,induced glucose uptake; also recorded: increased glucose uptake,induced glucose uptake,,,
